Measurements published in PubChem BioAssay AID330 (DTP/NCI, 2004).
Several values for one entry are separate records, joined by “and”; a condition that tells them apart may be missing. Equal values may be shown once. Toxic doses and inconclusive results are not listed. The calls were made as follows: active = survival T/C of 150% or more; inactive = T/C below 125% in these data.

Test system: P388 leukemia ip, CD2F1 mice, survival T/C
Experiment: NCI In Vivo Anticancer Drug Screen. Data for tumor model P388 Leukemia (intraperitoneal) in CD2F1 (CDF1) mice
Conditions: endpoint: median survival time, higher = longer survival
Summary of the method: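 Mice carrying the transplanted tumor received test compound or vehicle. Survival was recorded in each group, and the value is the treated-group measurement divided by that of the vehicle-treated control group.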

[1] = dose: 50.0 mg/kg/injection, schedule: Q01DX005 (ip), vehicle: saline with Tween-80
[2] = dose: 100.0 mg/kg/injection, schedule: Q01DX005 (ip), vehicle: saline with Tween-80
[3] = dose: 50.0 mg/kg/injection, schedule: Q01DX005 (ip), vehicle: Klucel (hydroxypropylcellulose) (HPC)
[4] = dose: 100.0 mg/kg/injection, schedule: Q01DX005 (ip), vehicle: Klucel (hydroxypropylcellulose) (HPC)
[5] = dose: 200.0 mg/kg/injection, schedule: Q01DX005 (ip), vehicle: Klucel (hydroxypropylcellulose) (HPC)
[6] = dose: 25.0 mg/kg/injection, schedule: Q01DX009 (ip), vehicle: saline with Tween-80
[7] = dose: 12.5 mg/kg/injection, schedule: Q01DX009 (ip), vehicle: saline with Tween-80
[8] = dose: 50.0 mg/kg/injection, schedule: Q01DX009 (ip), vehicle: saline with Tween-80
[9] = dose: 100.0 mg/kg/injection, schedule: Q01DX009 (ip), vehicle: saline with Tween-80
[10] = dose: 25.0 mg/kg/injection, schedule: Q01DX009 (ip), vehicle: saline
[11] = dose: 50.0 mg/kg/injection, schedule: Q01DX009 (ip), vehicle: saline
[12] = dose: 6.25 mg/kg/injection, schedule: Q01DX009 (ip), vehicle: saline with Tween-80
[13] = dose: 60.0 mg/kg/injection, schedule: Q01DX005 (ip), vehicle: Klucel (hydroxypropylcellulose) (HPC)
[14] = dose: 120.0 mg/kg/injection, schedule: Q01DX005 (ip), vehicle: Klucel (hydroxypropylcellulose) (HPC)
[15] = dose: 240.0 mg/kg/injection, schedule: Q01DX005 (ip), vehicle: Klucel (hydroxypropylcellulose) (HPC)

Measured: T/C

CCOC(=O)C1=C(O)C[C@]2(O)C3CC=C(C)[C@@H]4CCO[C@](OC)(C[C@H]2C1)[C@]34C(=O)OC (stereo partly specified)
inactive: [1] 100 % of control | [2] 96 % of control

NC1=NN(S(=O)(=O)c2ccccc2)CC1
inactive: [3] 94 % of control | [4] 99 % of control | [5] 98 % of control

Cc1cccc(C)c1N=CNc1c(C)cccc1C.[Cu+2]
inactive: [6] 101 % of control and 103 % of control and 118 % of control

CCOc1nsc(OCC)n1
inactive: [7] 103 % of control | [6] 106 % of control | [8] 106 % of control | [9] 114 % of control

COCCn1c(=O)[nH]c(=O)c2c(Nc3ccccc3)snc21
inactive: [10] 100 % of control and 93 % of control | [11] 98 % of control and 99 % of control and 89 % of control | [9] 95 % of control | dose: 100.0 mg/kg/injection, schedule: Q01DX009 (ip), vehicle: saline 98 % of control and 112 % of control and 97 % of control | dose: 200.0 mg/kg/injection, schedule: Q01DX009 (ip), vehicle: saline with Tween-80 100 % of control | dose: 200.0 mg/kg/injection, schedule: Q01DX009 (ip), vehicle: saline 99 % of control

O=C(O)/C=C/C(=O)N1Cc2cc3ccccc3nc2C1
inactive: dose: 1.56 mg/kg/injection, schedule: Q01DX009 (ip), vehicle: saline with Tween-80 100 % of control and 101 % of control and 104 % of control | dose: 3.13 mg/kg/injection, schedule: Q01DX009 (ip), vehicle: saline with Tween-80 99 % of control and 103 % of control and 117 % of control | [12] 101 % of control and 94 % of control | dose: 8.0 mg/kg/injection, schedule: Q01DX009 (ip), vehicle: saline with Tween-80 91 % of control | [7] 98 % of control and 99 % of control and 107 % of control | dose: 16.0 mg/kg/injection, schedule: Q01DX009 (ip), vehicle: saline with Tween-80 94 % of control | dose: 32.0 mg/kg/injection, schedule: Q01DX009 (ip), vehicle: saline with Tween-80 99 % of control | dose: 64.0 mg/kg/injection, schedule: Q01DX009 (ip), vehicle: saline with Tween-80 94 % of control

O=C(NC1COB(c2cc(C(F)(F)F)cc(C(F)(F)F)c2)OC1c1ccc([N+](=O)[O-])cc1)C(Cl)Cl (stereo unspecified)
inactive: [13] 100 % of control | [14] 100 % of control | [15] 99 % of control

Cc1cn(C)c2c1-c1[nH]ncc1CC2
inactive: dose: 50.0 mg/kg/injection, schedule: Q04DX003 (ip), vehicle: Klucel (hydroxypropylcellulose) (HPC) 100 % of control | dose: 100.0 mg/kg/injection, schedule: Q04DX003 (ip), vehicle: Klucel (hydroxypropylcellulose) (HPC) 99 % of control | dose: 200.0 mg/kg/injection, schedule: Q04DX003 (ip), vehicle: Klucel (hydroxypropylcellulose) (HPC) 103 % of control

N#CC(NCc1ccccc1)c1ccc2c(c1)OCO2 (stereo unspecified)
inactive: [6] 90 % of control

C[C@H]1C(=O)OCN1S(=O)(=O)C(C)(C)C
inactive: dose: 60.0 mg/kg/injection, schedule: Q01DX005 (ip), vehicle: saline with Tween-80 101 % of control | dose: 120.0 mg/kg/injection, schedule: Q01DX005 (ip), vehicle: saline with Tween-80 104 % of control | dose: 240.0 mg/kg/injection, schedule: Q01DX005 (ip), vehicle: saline with Tween-80 102 % of control

CC(=O)OC(OC(C)=O)c1cc(Cl)c(C(OC(C)=O)OC(C)=O)cc1Cl
inactive: [13] 107 % of control | [14] 106 % of control | [15] 103 % of control

Cc1ccc(SC(=O)c2cccnc2Oc2ccccc2)cc1
inactive: [3] 90 % of control | [4] 99 % of control | [5] 96 % of control

BrC[Si](CBr)(c1ccccc1)c1ccccc1
inactive: dose: 12.5 mg/kg/injection, schedule: Q01DX009 (ip), vehicle: saline 106 % of control | [10] 106 % of control | [11] 99 % of control and 92 % of control

CN1CCCC1CCNc1nc(Nc2ccc(Cl)c(Cl)c2)nc2ccc(Cl)cc12 (stereo unspecified)
inactive: [12] 95 % of control | [7] 90 % of control | [6] 100 % of control

O=C1C=C(c2ccccc2)CC1
inactive: [6] 88 % of control | [8] 100 % of control | [9] 111 % of control

CCOC(=O)C1=C(N)OC(c2ccccc2)=C(C#N)C1c1ccc(C)cc1 (stereo unspecified)
inactive: [3] 110 % of control | [4] 107 % of control | [5] 100 % of control

CC(C)Cc1c(O)c(N=Nc2ccc(C(=O)O)c(O)c2)c2ccccc2c1O
inactive: dose: 100.0 mg/kg/injection, schedule: Q04DX002 (ip), vehicle: distilled water + alcohol 99 % of control | dose: 200.0 mg/kg/injection, schedule: Q04DX002 (ip), vehicle: distilled water + alcohol 97 % of control

O=C(OCC1N=C1c1ccccc1)c1ccc([N+](=O)[O-])cc1 (stereo unspecified)
inactive: dose: 50.0 mg/kg/injection, schedule: Q04DX003 (ip), vehicle: suspension in saline 99 % of control | dose: 100.0 mg/kg/injection, schedule: Q04DX003 (ip), vehicle: suspension in saline 98 % of control | dose: 200.0 mg/kg/injection, schedule: Q04DX003 (ip), vehicle: suspension in saline 100 % of control

Cc1c2oc3c(C)ccc(C(=O)NCCN4CCCCC4)c3nc-2c(C(=O)NCCN2CCCCC2)c(N)c1=O
inactive: dose: 12.5 mg/kg/injection, schedule: Q01DX009 (ip), vehicle: Klucel (hydroxypropylcellulose) (HPC) 98 % of control | dose: 25.0 mg/kg/injection, schedule: Q01DX009 (ip), vehicle: Klucel (hydroxypropylcellulose) (HPC) 117 % of control | dose: 50.0 mg/kg/injection, schedule: Q01DX009 (ip), vehicle: Klucel (hydroxypropylcellulose) (HPC) 115 % of control | dose: 100.0 mg/kg/injection, schedule: Q01DX009 (ip), vehicle: Klucel (hydroxypropylcellulose) (HPC) 110 % of control

CC1=C(c2ccccc2)OC(=O)C(Cl)(Cl)C1N(c1ccccc1)c1ccccc1 (stereo unspecified)
inactive: [1] 88 % of control | [2] 93 % of control | dose: 200.0 mg/kg/injection, schedule: Q01DX005 (ip), vehicle: saline with Tween-80 93 % of control

NC(=O)c1cc2c3ccccc3ncc2c2ccccc12
inactive: dose: 100.0 mg/kg/injection, schedule: Q01DX001 (ip), vehicle: saline with Tween-80 100 % of control | dose: 200.0 mg/kg/injection, schedule: Q01DX001 (ip), vehicle: saline with Tween-80 100 % of control | dose: 400.0 mg/kg/injection, schedule: Q01DX001 (ip), vehicle: saline with Tween-80 100 % of control

C1=CCONC1
inactive: dose: 50.0 mg/kg/injection, schedule: Q04DX003 (ip), vehicle: saline 93 % of control | dose: 100.0 mg/kg/injection, schedule: Q04DX003 (ip), vehicle: saline 104 % of control | dose: 200.0 mg/kg/injection, schedule: Q04DX003 (ip), vehicle: saline 92 % of control

CSc1nc(C)c(C(=O)CCN2CCOCC2)s1
inactive: dose: 60.0 mg/kg/injection, schedule: Q01DX005 (ip), vehicle: saline 117 % of control | dose: 120.0 mg/kg/injection, schedule: Q01DX005 (ip), vehicle: saline 105 % of control

N#CC1=C(Nc2ccccc2)SC(c2cccs2)NC1=O (stereo unspecified)
inactive: [13] 108 % of control | [14] 108 % of control

Cc1cc2nccc(/C=C/c3ccc(N(C)C)cc3)c2cc1C
inactive: [7] 102 % of control | [6] 110 % of control | [8] 92 % of control

CCN(CC)CCCC(C)Nc1cc(C)nc2c1ccc1c2ccc2c(NC(C)CCCN(CC)CC)cc(C)nc21 (stereo unspecified)
inactive: dose: 12.5 mg/kg/injection, schedule: Q01DX009 (ip), vehicle: distilled water + Tween-80 118 % of control | dose: 25.0 mg/kg/injection, schedule: Q01DX009 (ip), vehicle: distilled water + Tween-80 111 % of control

CC(C)=CCC(OC(=O)C=C(C)C)c1cc(O)c2c(O)ccc(O)c2c1O.[Cu] (stereo unspecified)
inactive: dose: 100.0 mg/kg/injection, schedule: Q04DX002 (ip), vehicle: saline with Tween-80 101 % of control | dose: 200.0 mg/kg/injection, schedule: Q04DX002 (ip), vehicle: saline with Tween-80 104 % of control
